The source of these data is patent publication US20220030866A1, “CONJUGATES OF AUXIN ANALOGS” (The State of Israel, Ministry of Agriculture & Rural …, priority 2019, published 2022).

Common to all, as to type: in vivo
The test system of test [1] is cuttings from mature Eucalyptus grandis trees. Briefly: rooting of cuttings from mature Eucalyptus grandis trees. Conditions: 100 μM compound by submerging or spraying, with 6000 ppm IBA.
Another test has as its system mung bean cuttings. Nature of the test: rooting of mung bean cuttings (number of adventitious roots per cutting). The note with it: for effect on AR formation in mung bean cuttings, in words: tested at 2, 10 or 50 μM. Here is the method:
Mung bean cuttings have been used for many years as a model for assessing the effect of plant hormones and synthetic chemicals on the rooting process. In the present study, this system was used to ascertain activity of conjugates in inducing adventitious root (AR) formation, and to evaluate the rate of conjugate hydrolysis that releases the free active auxin. […] The rooting activity in this system is determined by the number of adventitious roots per cutting.
The mung bean model was used to examine the activity of conjugates of three phenoxy acids, 4-CPA, MCPA, and 2-DP, on rooting. For comparison, plants were treated with (unconjugated) IBA or with 2-DP conjugated to glycine methyl ester (Gly-ME).

The next test concerns Arabidopsis seedlings. Briefly: root elongation inhibition in Arabidopsis seedlings. The note with it: 50 nM, after 5 days. Here is the method:
Adventitious roots (ARs) were induced in intact plants, using previously described procedures [Gutierrez et al., Plant Cell 2009, 21:3119-3132; Abu-Abied et al., Plant J 2012, 71:787-799; Rasmussen et al., Plant Physiol 2012, 158:1976-1987]. Briefly, seeds were germinated on MS/0.8% agar plates supplemented with 3% sucrose. The plates were kept in the dark for 2 days at 4° C., then 5 days at 22° C. in the dark, 2 days in the light, 3 days in the dark and then additional 4 days in the light to complete 2 weeks when roots were counted using a stereoscope. Sensitivity to auxin and/or auxin analogs was determined by following root elongation on vertical plates. The 4-day-old seedlings were transferred to MS plates containing 0.05 or 0.5 μM IAA and the root length was measured after 5 days, including the number of LRs in each root and calculation of the LR density. Each treatment experiment included 10-15 plants and was repeated 3 times.
A common technique for evaluating auxin activity is by determining the ability of a compound to inhibit root elongation [Zolman et al., Genetics 2000, 156:1323-1337]. In order to use this assay for comparing auxin activities of different conjugates, the minimum concentration of free 4-CPA that is active in the root elongation inhibition assay was determined. Four days old seedlings were placed in vertical plates containing increasing concentrations of 4-CPA. The root lengths were marked daily during 5 days.
Based on the above results, the effect of conjugates of 4-CPA (Compounds 1o-1t) on root elongation after 5 days was determined at concentrations of 50 nM.

The test system of test [2] is Pinus halepensis cuttings. Nature of the test: rooting and root development in pine cuttings. The note with it: 400 ppm IBA potassium salt + 5 ppm conjugate, 4 hours dip; 12 weeks. Here is the method:
The effects of exemplary D-amino acid conjugates of 4-CPA (Compounds to and Is) on rooting in Pinus halepensis cuttings were compared with those of 2-DP-glycine methyl ester conjugate (2-DP-Gly). Rooting mature pine cuttings (i.e., cuttings that are taken from trees more than 4 years old) is very difficult.
Apical cuttings were taken from 7-year-old trees, stored for 4 weeks at 4° C., and treated by dipping the cutting bases for 4 hours in the following solution: 400 ppm IBA potassium salt+5 ppm tested conjugate+0.1% Amistar™ fungicide (250 grams/liter azoxystrobin). The cuttings were evaluated after 12 weeks.

A further test deals with DR5:venus marker. Nature of the test: auxin activity by DR5:venus fluorescence in Arabidopsis plants. The note with it: 10 μM. Here is the method:
Imaging was performed using an SP8 Leica confocal microscope including solid-state lasers producing 405, 488, 514 and 552 nm light, and hybrid or PMT detectors. Objectives were either PL APO 20×/0.75, WD 0.62 mm or PL APO 63×/1.2 WD 0.3 mm. For fluorescence measurements, the Imaris™ spot detection option (Bitplane A.G.) was used to segment nuclei and calculate the average signal intensity.
One technique for assessing auxin activity of the 4-CPA amino acid conjugates utilized plants expressing nucleus-localized, fluorescent DR5:venus marker, the expression level of which is an indicator of intracellular auxin activity [Laskowski et al., PLoS Biol 2008, 6:e307]. Four days old seedlings grown on regular MS medium were transferred to plates containing 10 μM of the tested compounds and fluorescence was inspected by confocal microscope after 24 hours.
In order to assess the ability of the abovementioned sodium salts to penetrate the cells and activate an auxin response, an Arabidopsis DR5-Venus model was utilized (as described hereinabove). The plants were exposed to 10 μM of each compound for 24 hour; MS medium was used as a negative control, and the related Compounds 1p, 1r and 1t were used as positive controls.

For test [3], the system named is cuttings from mature Eucalyptus grandis trees. Briefly: rooting of cuttings from mature Eucalyptus grandis trees. The note with it: 100 μM conjugate without IBA, or 28 mM (6000 ppm) IBA alone; submerging base or spraying; scored after 45-60 days. Here is the method:
Eight-year-old Eucalyptus grandis plants were grown from seeds and placed in a net house in 20 liter pots containing peat and tuff (70:30, v/v), drip irrigated and fertilized with 3 liters of Shefer™ 737 liquid fertilizer (ICL Fertilizers, Israel) per cubic meter of water. Cuttings were collected from branches which grew 2-2.5 meters above the ground. Cuttings were 2-3 mm thick branches, 15 cm long, with 1-2 pairs of leaves. The leaf blades were cut in half to decrease transpiration. Cuttings were treated with 6000 ppm IBA (potassium indole-3-butyric acid) for 1 minute with or without 100 μM of each tested compound. The tested compounds were either applied to the base of the cutting, with or without IBA and/or sprayed on the foliage in the presence of 0.05% Triton™ X-100 surfactant. Cuttings were rooted in rooting tables heated to 25° C. under constant 90% humidity, in a controlled-climate greenhouse. The rooting medium contained crushed polystyrene foam: vermiculite no. 3: pit (3:2:1, v/v/v). Rooting was recorded after 30-60 days. Roots system architecture was analyzed by WinRHIZO™ system scanner and software.
Exemplary conjugates prepared as described in Example 1 were tested for their ability to promote adventitious root (AR) formation in cuttings from mature eucalyptus (Eucalyptus grandis) trees. In this model, AR formation is difficult to induce, with 5-15% root development in the presence of IBA potassium salt [Abu-Abied et al., Plant J 2012, 71:787-799], such that effective AR formation indicates a potent root formation activity.
Various concentrations and mode of applications were tested for each compound in the presence or absence of IBA (the “gold standard” rooting enhancer). A concentration of 100 μM of each conjugate was used for an initial screen of 37 conjugates, in which the compounds were applied to the base of the cutting by dipping (submerging the cutting base in a solution of the conjugate for one minute) or to the foliage by spraying. After 45 days, the cuttings were scored for the presence of callus or roots.
Conjugates prepared as described herein were evaluated in a Eucalyptus grandis rooting model, according to procedures such as described hereinabove. The bases of cuttings (a 12-15 cm long branch with the two upper leaves, whose blades were cut in half) were dipped in a solution containing 6000 ppm IBA potassium salt and 50 μM of conjugate for 1 minute, and the leaves were sprayed with 50 μM of the same conjugate (mixed with 0.5% Triton™ X-100 surfactant). The cuttings were imbedded in a heated (25° C.) rooting table containing a 1:2:3 ratio of peat:vermiculite:polystyrene, under 90% relative humidity.

In test [4] the test system is avocado rootstock cuttings. Briefly: rooting of avocado rootstock cuttings. The note with it: vc51 rootstock, IBA with compound. An excerpt: Avocado rootstock is extremely difficult to root. Currently, the common technique for propagating clones of avocado rootstock is to graft the desired rootstock on a seedling, and transfer to the dark to generate an etiolated branch. This branch can be rooted and grafted with the desired variety while still grafted on the seed [Frolich & Platt, California Avocado Society 1971-72 Yearbook 1972, 55:97-109]. However, the preparation of such twice-grafted seedlings is time-consuming and expensive.
The ability of exemplary conjugates to promote rooting in green avocado cuttings (in the presence of IBA) was therefore examined. In particular, Compounds 2h (MCPA-methanol), 4b (NAA-β-alanine methyl ester), 3g (2-DP-methyl-4-aminobenzoate), 3f (2-DP-p-toluidine), 1l (4-CPA-morpholine) and is (4-CPA-D-Trp) were tested.
Exemplary conjugates were also tested for rooting the hard-to-root species of avocado (VC801 rootstock) and argan, according to procedures described hereinabove.

Setting [5] is: Table 1, 50 μM, water control 29.6.
Setting [6] is: Table 1, 10 μM, water control 29.6.

Take `COC(=O)C(C)Oc1ccc(Cl)cc1Cl` (centres unmarked) [Compound 3h, 2-DP-methanol]: the “rooting in combination with IBA compared with IBA alone, in words” value (from here on “rooting … compared with IBA alone, in words”) in test [1] is given as “enhanced rooting in comparison with IBA alone”.

In the case of `COC(=O)CNC(=O)COc1ccc(Cl)cc1` [Compound 4-CPA-Gly, 4-CPA-Gly-methyl ester], in test [1], the “rooting … compared with IBA alone, in words” value is “exhibited lower rooting activity than the other conjugates”. In the test with mung bean cuttings (FIGS. 4A, 4B), the “appearance of the base of mung bean cuttings” value was “appeared swollen, but no AR developed”. Moreover, the “effect on AR formation in mung bean cuttings, in words” value (“effect on AR formation” for short) with mung bean cuttings is given as “induced a similar rooting rate only at the lowest tested concentration of 2 μM”.

As to `COC(=O)C[C@@H](NC(=O)COc1ccc(Cl)cc1)C(=O)OC` [Compound 1q, 4-CPA-D-Asp-methyl diester], the “effect on root elongation relative to control, in words” value in the test with Arabidopsis seedlings is reported as “did not affect root elongation”. In addition, the “rooting of mung bean cuttings (number of roots per cutting)” value (shortened to “rooting … (number of roots per cutting)”) in the test on mung bean cuttings (Table 2, 2 μM) was 67; in the test with mung bean cuttings (Table 2, 10 μM), 0; in the test with mung bean cuttings (Table 2, 50 μM), 0.

With `COC(=O)CNC(=O)C(C)Oc1ccc(Cl)cc1Cl` (centres unmarked) [Compound 2-DP-Gly, reference compound], in test [2], the “Degree of root development Medium (%)” value is given as 6.6%, the “Degree of root development Weak (%)” value stood at 46.7%, the “Degree of root development Well-developed (%)” value was found to be 46.7% and the “Rooting rate (%)” value was determined as 87.5%. In addition, the “rooting … (number of roots per cutting)” value in the test on mung bean cuttings (setting [5]) is reported as 97.2. Also, the “effect on AR formation” value in the test on mung bean cuttings is “positively correlated to dose”.

As for `CC(C)[C@H](NC(=O)COc1ccc(Cl)cc1)C(=O)[O-].[Na+]` [Compound 83, 4-CPA-L-Val sodium salt], the “DR5 fluorescence (auxin activity), in words” value in the test with DR5:venus marker is given as “about as active as their non-water soluble methyl esters”.

In the case of `O=C(COc1ccc(Cl)cc1)NCCO` [Compound 1a, 4-CPA-ethanolamine], in test [1], the “rooting … compared with IBA alone, in words” value was “enhanced rooting in comparison with IBA alone”. Also, the entries for the “rooting … (number of roots per cutting)” value in the test with mung bean cuttings (setting [6]) and in the test on mung bean cuttings (setting [5]) were 49.5 and 14.9, respectively. Moreover, in test [3], the “percentage of cuttings which exhibited rooting, stand-alone treatment” value is 15%.

With `COC(=O)c1ccc(NC(=O)COc2ccc(Cl)cc2)cc1` [Compound 1g, 4-CPA-methyl-4-aminobenzoate], the “rooting … compared with IBA alone, in words” value in test [1] is listed as “enhanced rooting in comparison with IBA alone”. Moreover, the “rooting … (number of roots per cutting)” value with mung bean cuttings (setting [6]) and in the test on mung bean cuttings (setting [5]) was 0 in each case.

Consider `COC(=O)C[C@H](NC(=O)COc1ccc(Cl)cc1)C(=O)OC` [Compound 1r, 4-CPA-L-Asp-methyl diester], for which the “effect on root elongation relative to control, in words” value with Arabidopsis seedlings is reported as “inhibited root elongation relative to control”. The “rooting … compared with IBA alone, in words” value in test [1] is listed as “at least as potent as that of their corresponding D-amino acid conjugates”. Besides, the “rooting … (number of roots per cutting)” value in the test on mung bean cuttings (Table 2, 2 μM) is recorded as 121; in the test with mung bean cuttings (Table 2, 10 μM), 34; in the test with mung bean cuttings (Table 2, 50 μM), 0. In addition, in the test with mung bean cuttings, the “effect on AR formation” value is “exhibited more activity than the D-Asp-methyl ester conjugate”.

As to `Cc1ccc(NC(=O)COc2ccc(Cl)cc2)cc1` [Compound 1f, 4-CPA-p-toluidine], the “rooting … compared with IBA alone, in words” value in test [1] was “enhanced rooting in comparison with IBA alone”. For the same compound, the “rooting … (number of roots per cutting)” value with mung bean cuttings (setting [6]) and in the test on mung bean cuttings (setting [5]) was 0 each time.

For `Cc1ccc(NC(=O)C(C)Oc2ccc(Cl)cc2Cl)cc1` (centres unmarked) [Compound 3f, 2-DP-p-toluidine], in test [4], the “roots per cutting of green avocado branches compared with etiolated branches treated with IBA, in words” value is listed as “considerably more roots per cutting”. In addition, the “rooting success rate of green avocado branches, in words” value in test [4] (compared with IBA alone) is listed as “considerably enhanced the rooting success rate”. The “rooting … compared with IBA alone, in words” value in test [1] is recorded as “enhanced rooting in comparison with IBA alone”.

With `COC(=O)CCNC(=O)COc1ccc(Cl)cc1` [Compound 1b, 4-CPA-β-alanine methyl ester], the “rooting … compared with IBA alone, in words” value in test [1] is “enhanced rooting in comparison with IBA alone”. Also, the “rooting … (number of roots per cutting)” value in the test with mung bean cuttings (setting [6]) and in the test with mung bean cuttings (setting [5]) was 0 each time.

As to `O=C([O-])C[C@H](NC(=O)COc1ccc(Cl)cc1)C(=O)[O-].[Na+].[Na+]` [Compound 84, 4-CPA-L-Asp disodium salt], the “DR5 fluorescence (auxin activity), in words” value in the test with DR5:venus marker was “did not promote DR5 activity”.
